The source of these data is ChEMBL document CHEMBL5715956, “Selective Targeting of Bromodomains of the Bromodomain-PHD Fingers Family Impairs Osteoclast Differentiation” (ACS Chem Biol, 2017).

Test [1] concerns the target Histone acetyltransferase p300 (Homo sapiens) (UniProt Q09472). Particulars: dose 10.0 µM.
Test [2] has as its target Histone-lysine N-methyltransferase ASH1L (Homo sapiens) (UniProt Q9NR48). Conditions: dose 10.0 µM.
Test [3] has as its target Muscarinic acetylcholine receptor M2 (Homo sapiens) (UniProt P08172). Description: Inhibition of M2 receptor (unknown origin) at 10 uM relative to control.
Test [4] addresses Nucleosome-remodeling factor subunit BPTF (Homo sapiens) (UniProt Q12830). Particulars: dose 10.0 µM.
Test [5] has as its target Adrenergic receptor alpha-2 (Homo sapiens) (UniProt P08913+P18825+P18089). Nature of the test: Inhibition of Alpha 2 receptor (unknown origin) at 10 uM relative to control. Format: protein assay.
Test [6] has as its target Protein polybromo-1 (Homo sapiens) (UniProt Q86U86). Particulars: dose 10.0 µM.
In test [7] the target is T1, Bromodomain-containing protein 1 (Homo sapiens) (UniProt O95696).
T1 sequence (whole entry): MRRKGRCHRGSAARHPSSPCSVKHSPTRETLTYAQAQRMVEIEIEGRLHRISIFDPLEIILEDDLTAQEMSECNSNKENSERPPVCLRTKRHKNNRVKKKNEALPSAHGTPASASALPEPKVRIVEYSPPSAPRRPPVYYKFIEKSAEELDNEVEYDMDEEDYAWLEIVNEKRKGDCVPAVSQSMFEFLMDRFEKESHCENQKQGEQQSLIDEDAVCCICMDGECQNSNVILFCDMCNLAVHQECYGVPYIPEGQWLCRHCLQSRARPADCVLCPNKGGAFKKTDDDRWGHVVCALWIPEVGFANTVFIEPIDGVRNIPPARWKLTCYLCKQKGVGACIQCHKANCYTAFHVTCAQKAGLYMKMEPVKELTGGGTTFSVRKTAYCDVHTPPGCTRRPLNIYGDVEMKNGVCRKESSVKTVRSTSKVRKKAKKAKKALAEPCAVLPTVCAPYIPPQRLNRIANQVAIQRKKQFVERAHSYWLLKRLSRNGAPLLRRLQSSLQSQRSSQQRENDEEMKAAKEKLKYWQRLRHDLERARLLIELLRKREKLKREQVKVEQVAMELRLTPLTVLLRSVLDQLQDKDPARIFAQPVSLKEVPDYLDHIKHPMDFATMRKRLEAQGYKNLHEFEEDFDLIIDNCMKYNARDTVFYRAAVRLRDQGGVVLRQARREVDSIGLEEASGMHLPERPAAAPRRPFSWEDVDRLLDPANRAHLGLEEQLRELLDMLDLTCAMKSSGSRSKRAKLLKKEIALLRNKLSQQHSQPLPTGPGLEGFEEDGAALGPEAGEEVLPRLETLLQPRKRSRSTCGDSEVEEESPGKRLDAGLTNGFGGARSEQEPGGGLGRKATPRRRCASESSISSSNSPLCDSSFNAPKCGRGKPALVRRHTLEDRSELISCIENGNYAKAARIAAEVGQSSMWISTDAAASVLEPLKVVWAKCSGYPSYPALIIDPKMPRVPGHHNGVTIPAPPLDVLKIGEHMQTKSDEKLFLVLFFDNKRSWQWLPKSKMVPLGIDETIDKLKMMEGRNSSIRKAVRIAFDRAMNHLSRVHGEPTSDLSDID
Conditions: dose 10.0 µM.

In test [8] the target is Transcription initiation factor TFIID subunit 1-like (Homo sapiens) (UniProt Q8IZX4). Particulars: dose 10.0 µM.
Test [9] has as its target 5-hydroxytryptamine receptor 6 (Homo sapiens) (UniProt P50406). Nature of the test: Binding affinity to 5HT6 (unknown origin) assessed as specific binding at 10 uM relative to control.
The target of test [10] is Transcription intermediary factor 1-alpha (Homo sapiens) (UniProt O15164). Particulars: dose 10.0 µM.
Test [11] has as its target Bromodomain-containing protein 2 (Homo sapiens) (UniProt P25440). Particulars: dose 10.0 µM.
For test [12], the target named is Bromodomain-containing protein 3 (Homo sapiens) (UniProt Q15059). Conditions: dose 10.0 µM.
For test [13], the target named is Bromodomain adjacent to zinc finger domain protein 2A (Homo sapiens) (UniProt Q9UIF9). Particulars: dose 10.0 µM.
The target in test [14] is Adenosine receptor A1 (Homo sapiens) (UniProt P30542). Nature of the test: Binding affinity to A1 receptor (unknown origin) assessed as specific binding at 10 uM relative to control.
Test [15] has as its target Nuclear body protein SP140 (Homo sapiens) (UniProt Q13342). Conditions: dose 10.0 µM.
The target in test [16] is Protein polybromo-1 (Homo sapiens) (UniProt Q86U86). Conditions: dose 10.0 µM. This is another data set of the same source.
Test [17] has as its target Chromatin remodeling regulator CECR2 (Homo sapiens) (UniProt Q9BXF3). Particulars: dose 10.0 µM.

SMILES strings stand for the structures.

Chain of Protein polybromo-1 (Homo sapiens) (Q86U86 whole entry): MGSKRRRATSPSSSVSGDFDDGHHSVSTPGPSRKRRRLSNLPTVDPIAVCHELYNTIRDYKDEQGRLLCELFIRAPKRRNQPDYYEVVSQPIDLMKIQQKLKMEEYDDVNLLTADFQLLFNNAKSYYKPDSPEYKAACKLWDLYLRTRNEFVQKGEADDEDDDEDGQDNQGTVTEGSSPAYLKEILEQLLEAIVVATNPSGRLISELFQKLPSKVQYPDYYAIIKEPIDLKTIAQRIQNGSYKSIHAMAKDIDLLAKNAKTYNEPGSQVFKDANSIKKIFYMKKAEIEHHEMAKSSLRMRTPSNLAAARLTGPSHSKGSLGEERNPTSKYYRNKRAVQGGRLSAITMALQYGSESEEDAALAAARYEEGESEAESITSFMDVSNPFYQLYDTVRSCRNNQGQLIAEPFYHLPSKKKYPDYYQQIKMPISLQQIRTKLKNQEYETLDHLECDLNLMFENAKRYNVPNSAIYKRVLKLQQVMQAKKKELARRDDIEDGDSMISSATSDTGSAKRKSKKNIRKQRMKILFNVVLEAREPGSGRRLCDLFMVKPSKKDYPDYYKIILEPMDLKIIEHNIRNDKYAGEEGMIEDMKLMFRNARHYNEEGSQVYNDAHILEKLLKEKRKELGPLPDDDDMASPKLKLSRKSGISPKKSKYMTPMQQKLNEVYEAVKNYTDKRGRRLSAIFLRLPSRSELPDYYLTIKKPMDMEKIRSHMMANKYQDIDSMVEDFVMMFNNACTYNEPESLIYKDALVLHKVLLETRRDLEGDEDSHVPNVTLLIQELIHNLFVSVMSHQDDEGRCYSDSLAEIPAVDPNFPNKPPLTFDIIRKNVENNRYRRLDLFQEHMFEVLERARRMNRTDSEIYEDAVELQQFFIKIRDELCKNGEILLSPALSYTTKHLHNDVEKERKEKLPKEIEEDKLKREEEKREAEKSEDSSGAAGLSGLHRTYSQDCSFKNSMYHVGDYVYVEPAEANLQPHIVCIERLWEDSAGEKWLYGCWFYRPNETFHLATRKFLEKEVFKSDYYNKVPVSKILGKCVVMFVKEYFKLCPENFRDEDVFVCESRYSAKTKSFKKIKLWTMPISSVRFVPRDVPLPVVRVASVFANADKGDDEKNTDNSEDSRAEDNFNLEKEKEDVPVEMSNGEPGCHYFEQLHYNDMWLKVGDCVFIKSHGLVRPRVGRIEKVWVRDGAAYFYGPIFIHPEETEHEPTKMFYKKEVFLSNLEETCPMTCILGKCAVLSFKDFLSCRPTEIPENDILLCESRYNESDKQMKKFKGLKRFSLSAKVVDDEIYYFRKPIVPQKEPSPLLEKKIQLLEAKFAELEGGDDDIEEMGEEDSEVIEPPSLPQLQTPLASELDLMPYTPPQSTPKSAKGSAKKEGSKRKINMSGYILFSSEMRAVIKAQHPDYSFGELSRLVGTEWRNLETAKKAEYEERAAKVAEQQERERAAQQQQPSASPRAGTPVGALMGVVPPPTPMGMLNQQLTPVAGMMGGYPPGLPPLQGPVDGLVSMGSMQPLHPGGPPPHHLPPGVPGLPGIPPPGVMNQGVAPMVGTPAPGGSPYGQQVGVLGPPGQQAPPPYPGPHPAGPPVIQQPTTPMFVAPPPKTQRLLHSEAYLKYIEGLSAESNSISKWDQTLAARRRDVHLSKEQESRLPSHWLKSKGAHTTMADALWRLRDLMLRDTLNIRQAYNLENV
Chain of Transcription intermediary factor 1-alpha (Homo sapiens) (O15164 whole entry): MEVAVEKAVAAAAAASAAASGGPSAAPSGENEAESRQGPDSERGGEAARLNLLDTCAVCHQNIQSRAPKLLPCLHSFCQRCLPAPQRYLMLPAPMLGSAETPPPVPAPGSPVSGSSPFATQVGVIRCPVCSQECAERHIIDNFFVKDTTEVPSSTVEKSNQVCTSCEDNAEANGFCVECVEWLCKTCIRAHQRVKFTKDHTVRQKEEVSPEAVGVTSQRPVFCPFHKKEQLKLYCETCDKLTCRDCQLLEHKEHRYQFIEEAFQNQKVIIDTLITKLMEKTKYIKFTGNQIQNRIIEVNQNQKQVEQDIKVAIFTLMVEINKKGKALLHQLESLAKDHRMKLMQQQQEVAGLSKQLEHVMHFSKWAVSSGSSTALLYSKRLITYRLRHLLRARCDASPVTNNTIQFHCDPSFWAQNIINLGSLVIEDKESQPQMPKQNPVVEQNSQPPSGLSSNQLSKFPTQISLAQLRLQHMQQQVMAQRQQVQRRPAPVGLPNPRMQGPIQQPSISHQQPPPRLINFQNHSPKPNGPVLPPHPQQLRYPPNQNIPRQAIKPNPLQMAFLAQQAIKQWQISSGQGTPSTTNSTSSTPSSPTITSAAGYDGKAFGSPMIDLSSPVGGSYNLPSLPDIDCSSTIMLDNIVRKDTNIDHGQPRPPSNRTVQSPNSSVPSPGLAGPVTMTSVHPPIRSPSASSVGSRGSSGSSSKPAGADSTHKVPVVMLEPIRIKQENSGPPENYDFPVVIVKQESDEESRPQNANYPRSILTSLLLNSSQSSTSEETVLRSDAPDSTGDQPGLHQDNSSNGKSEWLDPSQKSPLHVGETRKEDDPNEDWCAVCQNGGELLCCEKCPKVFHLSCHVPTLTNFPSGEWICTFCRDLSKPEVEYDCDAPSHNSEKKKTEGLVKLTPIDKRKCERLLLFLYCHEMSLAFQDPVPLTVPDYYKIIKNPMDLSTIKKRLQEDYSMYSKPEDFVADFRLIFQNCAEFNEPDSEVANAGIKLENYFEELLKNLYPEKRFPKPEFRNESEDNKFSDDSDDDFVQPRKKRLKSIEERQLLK
Chain of Bromodomain-containing protein 2 (Homo sapiens) (P25440 whole entry, looked up): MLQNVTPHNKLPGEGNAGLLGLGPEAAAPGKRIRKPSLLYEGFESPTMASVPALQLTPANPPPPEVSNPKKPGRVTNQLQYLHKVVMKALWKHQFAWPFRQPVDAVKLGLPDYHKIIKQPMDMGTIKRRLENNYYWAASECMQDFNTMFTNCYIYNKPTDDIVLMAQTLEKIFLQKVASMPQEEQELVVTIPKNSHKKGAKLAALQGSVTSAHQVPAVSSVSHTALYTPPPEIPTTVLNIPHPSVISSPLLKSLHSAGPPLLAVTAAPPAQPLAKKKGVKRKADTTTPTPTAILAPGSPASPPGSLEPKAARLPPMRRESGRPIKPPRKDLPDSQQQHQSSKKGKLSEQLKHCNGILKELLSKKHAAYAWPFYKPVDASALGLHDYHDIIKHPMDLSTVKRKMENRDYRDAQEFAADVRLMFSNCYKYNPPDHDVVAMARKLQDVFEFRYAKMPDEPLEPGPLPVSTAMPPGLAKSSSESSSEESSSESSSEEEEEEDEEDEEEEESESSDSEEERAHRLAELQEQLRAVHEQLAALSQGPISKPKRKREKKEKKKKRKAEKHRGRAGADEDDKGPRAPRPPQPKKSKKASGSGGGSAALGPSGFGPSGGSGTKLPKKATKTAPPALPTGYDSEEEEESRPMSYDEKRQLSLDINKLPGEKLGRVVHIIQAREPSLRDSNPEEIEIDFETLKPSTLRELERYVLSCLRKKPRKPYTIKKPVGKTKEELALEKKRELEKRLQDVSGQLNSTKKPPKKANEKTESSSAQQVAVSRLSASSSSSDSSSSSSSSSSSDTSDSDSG
Chain of 5-hydroxytryptamine receptor 6 (Homo sapiens) (P50406 whole entry): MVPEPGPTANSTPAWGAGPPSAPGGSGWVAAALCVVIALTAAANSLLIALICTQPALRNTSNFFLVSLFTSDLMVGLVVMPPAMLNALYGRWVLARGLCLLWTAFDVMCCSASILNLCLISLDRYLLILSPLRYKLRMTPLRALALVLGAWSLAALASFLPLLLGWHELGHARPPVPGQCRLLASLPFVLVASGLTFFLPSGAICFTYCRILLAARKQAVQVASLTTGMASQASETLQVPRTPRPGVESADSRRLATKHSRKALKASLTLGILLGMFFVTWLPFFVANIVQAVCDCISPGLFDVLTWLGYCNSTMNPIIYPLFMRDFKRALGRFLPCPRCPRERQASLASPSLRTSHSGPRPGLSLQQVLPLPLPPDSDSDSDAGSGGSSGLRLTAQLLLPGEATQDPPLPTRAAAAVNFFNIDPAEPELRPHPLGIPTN
Chain of Muscarinic acetylcholine receptor M2 (Homo sapiens) (P08172 whole entry): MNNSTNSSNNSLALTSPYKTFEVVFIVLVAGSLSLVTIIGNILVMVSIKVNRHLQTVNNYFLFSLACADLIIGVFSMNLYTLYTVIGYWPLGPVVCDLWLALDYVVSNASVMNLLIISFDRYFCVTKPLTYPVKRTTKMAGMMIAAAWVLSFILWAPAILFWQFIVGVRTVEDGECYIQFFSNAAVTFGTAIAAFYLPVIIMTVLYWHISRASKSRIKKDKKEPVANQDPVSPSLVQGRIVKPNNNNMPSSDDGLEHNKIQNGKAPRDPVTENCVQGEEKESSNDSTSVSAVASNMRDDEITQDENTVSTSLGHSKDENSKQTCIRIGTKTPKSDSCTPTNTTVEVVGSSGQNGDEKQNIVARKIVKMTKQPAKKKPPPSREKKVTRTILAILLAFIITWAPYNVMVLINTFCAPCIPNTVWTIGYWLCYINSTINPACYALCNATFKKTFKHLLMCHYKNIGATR
Chain of Adenosine receptor A1 (Homo sapiens) (P30542 whole entry): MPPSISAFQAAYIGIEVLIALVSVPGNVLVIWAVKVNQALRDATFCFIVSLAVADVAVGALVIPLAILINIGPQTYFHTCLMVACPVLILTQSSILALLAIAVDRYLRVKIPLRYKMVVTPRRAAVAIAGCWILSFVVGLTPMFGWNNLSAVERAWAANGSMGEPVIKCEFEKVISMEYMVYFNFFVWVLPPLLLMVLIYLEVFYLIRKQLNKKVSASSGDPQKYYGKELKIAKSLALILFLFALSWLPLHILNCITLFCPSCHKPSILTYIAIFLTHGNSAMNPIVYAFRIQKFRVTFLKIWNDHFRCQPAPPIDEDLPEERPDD

As for `COc1cc2c(cc1NS(=O)(=O)c1ccc(Br)cc1C)n(C)c(=O)n2C`, the ΔTm in [1] stood at 0.7 °C; in test [2], 0.3 °C; in [4], 0.9 °C; in test [6], 0.4 °C; in [7] it was 3.1 °C; in [8] it was 1.4 °C. Besides, the ΔTm was determined as 1.8 °C in [10]; 0.7 °C in [11]; 1.4 °C in test [12]; 0.2 °C in test [13]; 0.1 °C in test [15]; 0.2 °C in [16]. Moreover, the thermal shift (ΔTm) in test [17] was 0.1 °C. Moreover, the values for the inhibition in test [3] and in test [5] were 9% and -3%, respectively. Besides, the Activity came out at 49.9% in [9] and 19.8% in [14].

As usually defined, the ΔTm is the change in melting temperature against a reference sample. One may read the inhibition as the drop in the measured response relative to a control, in per cent.
